Measurements as given in patent US20110045100A1, “Antimalarial Quinolines and Methods of Use Thereof” (GEORGETOWN UNIVERSITY, priority 2008, published 2011).
Where two headings read alike, the source gives them in different places. One block for each compound: values may come before it.

Key:
[1] = tested on: FCB (CQR strain of P. falciparum); assay: SYBR Green I antiplasmodial assay, strain FCB; assay type: cell-based, Plasmodium falciparum; conditions: Plasmodium falciparum, read-out: IC50 for FCB
Source text: (§1) Bennett T. N.; Paguio, M.; Gligorijevic, B.; Seudieu, C.; Kosar, A. D.; Davidson, E.; Roepe, P. D. Novel, rapid, and inexpensive cell-based quantification of antimalarial drug efficacy. Antimicrob. Agents Chemother. 2004, 48, 1807-1810; Smilkstein, M.; Sriwilaijaroen, N.; Kelly, J. X.; Wilairat, P.; Riscoe, M. Simple and inexpensive fluorescence-based technique for high-throughput antimalarial drug screening. Antimicrob. Agents Chemother. 2004, 48, 1803-1806; and Johnson, J. D.; Dennull, R. A.; Gerena, L.; Lopez-Sanchez, M.; Roncal, N. E.; Waters, N.C. Assessment and continued validation of the malaria SYBR green I-based fluorescence assay for use in malaria drug screening. Antimicrob. Agents Chemother. 2007, 51, 1926-1933. […] Drake, N. L.; Creech, H. J.; Garman, J. A.; Haywood, S. T.; Peck, R. M.; van Hook, J. O.; Walton, E. Synthetic antimalrials. The preparation of certain 4-aminoquinolines. J. Am. Chem. Soc. […] Trans. R. Soc. Trop. Med. Hyg. […] J. Parasitol. 1983, 69, 97-105. The selectivity index provides a quantitative measure of the antimalarial activity against CQR strains relative to that against sensitive strains and thus indicates promising drug discovery leads. […] This can be combined with the introduction of a third basic amino function which should further favor accumulation of the drug within the acidic food vacuole of the parasite.
(§2) Drug activities were assessed and IC50 were quantified essentially as described previously. Delarue, S.; Girault, S.; Maes, L.; Debreu-Fontaine, M. A.; Labaeid, M.; Grellier, P.; Sergheraert, C. Synthesis and in vitro and in vivo antimalarial activity of new 4-anilinoquinolines. J. Med. Chem. 2001, 44, 2827-2833; and O'Neill, P. M.; Willock, D. J.; Hawley, S. R.; Bray, P. G.; Storr, R. C.; Ward, S. A.; Park, B. K. Synthesis, antimalarial activity, and molecular modeling of tebuquine analogues. J. Med. Chem. 1997, 40, 437-448. The aminoquinolines were diluted using complete media under sterile conditions and plated in a 96 well plate format. Sorbitol synchronized cultures were utilized with >95% of the parasites at the ring stage. Cultures were diluted to give a working stock of 0.5% parasitemia and 2% hematocrit (final hematocrit 1% & 0.5% Parasitemia). The plates were incubated for 72 h at 37° C. After 72 h, 50 μL of 10×SYBR green I dye was added to each well, and the plate was incubated for 1 h at 37° C. Fluorescence was measured at 530 nm (490 nm excitation) using a spectra geminiEM plate reader. Data analysis was performed using sigma plot 9.0 software after downloading data in Excel format.

[2] = tested on: Dd2 (chloroquine resistant strain of P. falciparum); assay: SYBR Green I antiplasmodial assay, strain Dd2; assay type: cell-based, Plasmodium falciparum
Source text: as §1
The antiplasmodial activity of these compounds was measured versus a CQS (HB3) and a CQR (Dd2) strain using a standardized, inexpensive assay based on SYBR Green I intercalation. Bennett T. N.; Paguio, M.; Gligorijevic, B.; Seudieu, C.; Kosar, A. D.; Davidson, E.; Roepe, P. D. Antimicrob. Agents Chemother. 2004, 48, 1807-1810; Smilkstein, M.; Sriwilaijaroen, N.; Kelly, J. X.; Wilairat, P.; Riscoe, M. Antimicrob. Agents Chemother. 2004, 48, 1803-1806; and Johnson, J. D.; Dennull, R. A.; Gerena, L.; Lopez-Sanchez, M.; Roncal, N. E.; Waters, N.C. Antimicrob. Agents Chemother. 2007, 51, 1926-1933. […] De, D.; Krogstad, F. M.; Cogswell, F. B.; Krogstad, D. J. Am. J. Trop. Med. Hyg. 1996, 55, 579-583. […] The basic tertiary amino function in the side chain is commonly believed to be crucial for the accumulation of the drug within the acidic food DV.
as §2

[3] = tested on: monomeric heme; assay: Heme affinity measurement, monomeric heme; assay type: binding; conditions: acidic 40% DMSO
Method: To test whether binding to Hz precursors is also altered for the 4S and 4O derivatives, binding constants were measured as previously described for both μ-oxo dimeric and monomeric heme (FIG. 25). […] J. Am. Chem. Soc. 1988, 110, 4391-4395; Egan, T. J.; Mavuso, W. W.; Ross, D. C.; Marques, H. M. Thermodynamic factors controlling the interaction of quinoline antimalarial drugs with ferriprotoporphyrin IX. J. Inorg. Biochem. 1997, 68, 137-145; and Egan, T. J.; Ncokazi, K. K. Effects of solvent composition and ionic strength on the interaction of quinoline antimalarials with ferriprotoporphyrin IX. J. Inorg. Biochem. 2004, 98, 144-152. Due to the instability of monomeric heme in aqueous solution, the affinity to monomer measured by conventional absorbance experiments can only be estimated using 40% DMSO in water as solvent. Egan, T. J.; Ncokazi, K. K. Effects of solvent composition and ionic strength on the interaction of quinoline antimalarials with ferriprotoporphyrin IX. J. Inorg. Biochem. 2004, 98, 144-152. At appropriately acidic solution pH (≦5.0) FPIX heme is primarily monomeric, whereas at pH 7, appreciable dimer is formed. As shown (FIG. 25), CQ and compounds 88, 93, and 98 all have poor affinity for monomeric heme in acidic 40% DMSO. To further test if CQ interacts with monomeric heme, T1 measurements of the CQ protons were made with samples containing 10 mM CQ and 2 mM hemin chloride in 40% DMSO at pH 5.0. Although the lines are broadened in this solution due to paramagnetic susceptibility, the measured T1's indicate only weak paramagnetic relaxation. For example, the measured T1 for CQ proton 1 in this sample is 0.70 s, whereas at pH 7.0 the T1 for the same proton is 0.039 s.
To measure affinity for monomeric heme, 1.2 mM stock solutions of hemin (sodium salt from Sigma-Aldrich) were prepared in DMSO and stored as […] aliquots. 4.8 μM working solutions were prepared in 40% DMSO/phosphate buffer (fresh stocks prepared daily). Stock solutions of CQ and CQ analogues (diphosphate or dihydrochloride salts) were prepared in 40% DMSO/phosphate buffer and used for the titration experiments (all drugs dilutions were prepared in the same buffer).
1.5 mL cuvettes containing freshly prepared samples of 4.8 μM heme were titrated with increasing concentrations (0-50 μM) of drug. Following each addition, the sample was mixed and heme absorbance then recorded at 402 nm. Control experiments were performed by titrating 4.8 μM heme with similar volumes of solvent and no drug present. […] The absorbance peak analysis was done using Microsoft excel and Ka were extracted from the ΔAbs402 plots via Scatchard analysis using Microsoft Excel and Sigma plot 9.0.1 software.

[4] = tested on: HB3 (chloroquine sensitive strain of P. falciparum); assay: SYBR Green I antiplasmodial assay, strain HB3; assay type: cell-based, Plasmodium falciparum; conditions: CQS strain HB3; read-out: IC50 against HB3
Source text: Bennett T. N.; Paguio, M.; Gligorijevic, B.; Seudieu, C.; Kosar, A. D.; Davidson, E.; Roepe, P. D. Novel, rapid, and inexpensive cell-based quantification of antimalarial drug efficacy. Antimicrob. Agents Chemother. 2004, 48, 1807-1810; Smilkstein, M.; Sriwilaijaroen, N.; Kelly, J. X.; Wilairat, P.; Riscoe, M. Simple and inexpensive fluorescence-based technique for high-throughput antimalarial drug screening. Antimicrob. Agents Chemother. 2004, 48, 1803-1806; and Johnson, J. D.; Dennull, R. A.; Gerena, L.; Lopez-Sanchez, M.; Roncal, N. E.; Waters, N.C. Assessment and continued validation of the malaria SYBR green I-based fluorescence assay for use in malaria drug screening. Antimicrob. Agents Chemother. 2007, 51, 1926-1933. […] The selectivity index provides a quantitative measure of the antimalarial activity against CQR strains relative to that against sensitive strains and thus indicates promising drug discovery leads. […]
The antiplasmodial activity of these compounds was measured versus a CQS (HB3) and a CQR (Dd2) strain using a standardized, inexpensive assay based on SYBR Green I intercalation. […]
Drug activities were assessed and IC50 were quantified essentially as described previously. […] Fluorescence was measured at 530 nm (490 nm excitation) using a spectra geminiEM plate reader. […]

[5] = tested on: μ-oxo dimeric heme; assay: Heme affinity measurement, μ-oxo dimeric heme; assay type: binding; conditions: aqueous solution
Method: 1.5 mL cuvettes containing freshly prepared samples of 4.8 μM heme were titrated with increasing concentrations (0-50 μM) of drug. Following each addition, the sample was mixed and heme absorbance then recorded at 402 nm. Control experiments were performed by titrating 4.8 μM heme with similar volumes of solvent and no drug present. To measure affinity for μ-oxo dimeric heme, the procedure was similar except hemin was first converted to dimeric form in mild alkaline solution, followed by titration to pH 7.5 using Hepes buffer. The absorbance peak analysis was done using Microsoft excel and Ka were extracted from the ΔAbs402 plots via Scatchard analysis using Microsoft Excel and Sigma plot 9.0.1 software.

[6] = tested on: hemozoin (Hz) formation; assay: Quantification of in vitro Hz formation inhibition; assay type: biochemical
Method: A stock solution of 5 mM hemin (Fluka) in 0.1M NaOH was prepared and stored as small aliquots at -20° C. Fresh aliquots were thawed daily to room temperature before use. Lecithin stock solutions were prepared by dissolving in distilled water to 10 mg/ml and similarly stored. 0.5 M propionate was used to buffer experiments in the pH range 5.2-5.6. The assay mixture (1 mL volumes) contained: 200 μL lecithin solution ([…] final) 20 μL hematin (100 μM final concentration) 20 μ[…] propionate buffer (X) μL drug (dependant on the concentration required 0-1000 μM). The addition sequence involved first adding the lecithin followed by heme, HCl, propionate buffer and finally the drug. Each sample was prepared in triplicate. Following addition of the reagents the samples were incubated at 37° C. with constant shaking for 18 h. After 18 h the assay was stopped by spinning the samples at 13,200 rpm for 10 minutes followed by carefully aspirating off the supernatant. The pellet was then resuspended in 50 mM bicarbonate buffer pH 9.0 (1 mL) and gently shaken at room temperature for 30 minutes to dissolve uncrystallized heme. The samples were then centrifuged as above and the supernatant removed. […] The samples were then dissolved in 0.1M NaOH to solubilize β-hematin to free heme and β-hematin formed was then quantified via heme absorbance at 402 nm. Calibration curves were prepared by titrating increasing amounts of heme in the same solvent vs. absorbance at 402 nm.

[7] = pKa determination by acid/base titration; assay type: physicochemical; conditions: distilled water; measured; read-out: quinolyl N pKa
Method: SPARC pKa calculator is an online tool developed at the University of Georgia by S. W. Karickhoff, L. A. Carreira and S. H. Hilal. Experimental pKa were determined using an Accumet AB15 pH meter and a calomel electrode. 10 mM solutions of the drugs (as dibasic salts) were made in distilled H2O and titrated at room temperature (23.0±2.0° C.) using 0.1 M NaOH. Titration plots were generated and pKa's extracted via inflection points from the second derivative plots; (Δ^2pH/ΔV^2) vs. V, where V represents the volume of the titrant added and ΔV is the volume increment.

[8] = tested on: CQS (HB3, GCO3) and CQR (Dd2, FCB) strains of P. falciparum; assay: SYBR Green I antiplasmodial assay, several CQS and CQR strains; assay type: cell-based, Plasmodium falciparum
Source text: as §1
Bennett T. N.; Paguio, M.; Gligorijevic, B.; Seudieu, C.; Kosar, A. D.; Davidson, E.; Roepe, P. D. Novel, rapid, and inexpensive cell-based quantification of antimalarial drug efficacy. Antimicrob. Agents Chemother. 2004, 48, 1807-1810; Smilkstein, M.; Sriwilaijaroen, N.; Kelly, J. X.; Wilairat, P.; Riscoe, M. Simple and inexpensive fluorescence-based technique for high-throughput antimalarial drug screening. Antimicrob. Agents Chemother. 2004, 48, 1803-1806; and Johnson, J. D.; Dennull, R. A.; Gerena, L.; Lopez-Sanchez, M.; Roncal, N. E.; Waters, N.C. Assessment and continued validation of the malaria SYBR green I-based fluorescence assay for use in malaria drug screening. Antimicrob. Agents Chemother. 2007, 51, 1926-1933.
Drug activities were assessed and IC50 were quantified essentially as described previously. Delarue, S.; Girault, S.; Maes, L.; Debreu-Fontaine, M. A.; Labaeid, M.; Grellier, P.; Sergheraert, C. Synthesis and in vitro and in vivo antimalarial activity of new 4-anilinoquinolines. J. Med. Chem. 2001, 44, 2827-2833; and O'Neill, P. M.; Willock, D. J.; Hawley, S. R.; Bray, P. G.; Storr, R. C.; Ward, S. A.; Park, B. K. Synthesis, antimalarial activity, and molecular modeling of tebuquine analogues. J. Med. Chem. 1997, 40, 437-448.

SMILES: CCN(CC)CCCC(C)Nc1ccnc2cc(Cl)ccc12 (stereo not drawn) [CQ, chloroquine, reference compound]
IC50 [1]: 170 nM
IC50 ([2]; Plasmodium falciparum, DD2, read-out: IC50 against Dd2): 140 nM
affinity for monomeric heme [3]: poor affinity

IC50 [4]: 17.5 nM
IC50 ([2]; CQR strain Dd2, read-out: IC50 against Dd2): 22.7 nM
SMILES: CCN(CCNc1ccnc2cc(Cl)ccc12)CCNS(=O)(=O)c1cccc2c(N(C)C)cccc12 [compound 23]
activity against the CQ resistant strain Dd2 in comparison with CQ ([2]; compared with CQ): significantly more potent

SMILES: CCN(CC)CCCCNc1ccnc2cc(Cl)ccc12 [compound 88, N-(7-Chloro-4-quinolyl)-N′,N′-diethyl-1,4-diaminobutane]
affinity (association constant Ka) vs. μ-oxo dimer [5]: quite similar
affinity for monomeric heme [3]: poor affinity

pKa [7]: 4.1
SMILES: CCN(CC)CCCCSc1ccnc2cc(Cl)ccc12 [compound 98, S-(7-Chloro-4-quinolyl)-4-(N,N-diethylamino)butanethiol]
ability to inhibit Hz formation vs. that measured for CQ and 8 ([6]; FIG. 26): significantly lower
affinity (association constant Ka) vs. μ-oxo dimer [5]: quite similar
affinity for monomeric heme [3]: poor affinity

SMILES: CCN(CC)CCCC(CCCN(CC)CC)Oc1ccnc2cc(Cl)ccc12 [compound 102, 7-Chloro-4-(1′,7′-bis(diethylamino)-4′-heptoxy)quinoline]
activity vs. both CQR and CQS strains relative to 93 ([8]; FIG. 23): improved activity
fold lower IC50 relative to 98 ([8]; strains Dd2 and FCB): 10 fold
inhibition of Hz formation relative to monobasic 4O derivative 13 [6]: more potent inhibitor of Hz formation
